The assay deals with PDZ1–3 (PDZ123) domains of PSD-95 (Rattus norvegicus, UniProt P31016). The assay can be described thus: […]-1H HSQC NMR chemical shift titration. Type of assay: binding.

The Kd is a measure of binding affinity in units of concentration.

Sequence of PDZ1–3 (PDZ123) domains of PSD-95 (P31016 61-393): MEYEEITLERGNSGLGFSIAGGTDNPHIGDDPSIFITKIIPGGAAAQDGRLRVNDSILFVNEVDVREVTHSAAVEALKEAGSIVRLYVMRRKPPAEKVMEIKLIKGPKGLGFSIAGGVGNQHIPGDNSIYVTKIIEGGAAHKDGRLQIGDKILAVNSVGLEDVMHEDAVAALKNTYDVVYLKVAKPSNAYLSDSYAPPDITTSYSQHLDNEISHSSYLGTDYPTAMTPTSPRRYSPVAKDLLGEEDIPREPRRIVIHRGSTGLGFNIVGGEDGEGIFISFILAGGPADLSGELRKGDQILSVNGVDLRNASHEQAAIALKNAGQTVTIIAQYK

On to `FC(F)OC(Cl)C(F)(F)F` (stereo not shown) [isoflurane], for which the Kd is around 3 mM.

The record behind these values is PMC4366275 (Anesthesiology, 2015).
